How the values were obtained:
T7 RNA polymerase = T7 RNA polymerase (Escherichia phage T7, UniProt P00573); conditions: T7 RNA polymerase transcription, pTri β actin template, cap analog 1.6 mM, GTP 0.4 mM, 37° C. 2 h, 20% dPAGE gel
Method: The gel shift assay was performed by using a pTri β actin template and the IVT reaction used linearized AmbLuc poly(A) DNA template and a [sequence] kit (Life Technologies Corporation). Radiation in the gel bands of interest was quantified by a phosphorimager (GE Healthcare).
To analyze capping efficiency during transcription a Gel Shift Assay was used. The Gel shift assay was performed using the MAXISCRIPT kit (Life Technologies Corporation) by following the manufacturer's protocol. A typical 20 μL T7 RNA polymerase transcription reaction contained the following reagents at the final concentrations indicated: linearized pTri β actin vector template, 0.5 μg; ATP, 2 mM; GTP, 0.4 mM; compound standard cap analog and alkynyl-derivatized cap analog 7, 1.6 mM each in separate reactions; 10× reaction buffer, 4 μl; T7 RNA polymerase, 50 units/μL; (α-^32P) ATP, 800 (Ci/mmol); and DEPC water. The control reaction was a normal in vitro transcription reaction, in which no cap analog was added. […] Radiation in the gel bands of interest was quantified by a phosphoroimager (GE Healthcare).
Due to the omission of CTP and UTP, only the 5′ end was transcribed by T7 RNA polymerase, producing a transcript of six nucleotides in length. The resulting transcription products were analyzed by 20% denaturing polyacrylamide/8 M urea gel.

HeLa cells = assay: Translation efficiency: luciferase activity after transfection of capped luciferase mRNA poly(A); assay type: cell-based; conditions: luciferase mRNA poly(A) transfected into HeLa cells, 16 h, versus m^7GpppG-capped mRNA
Method: Alkynyl-derivatized capped mRNAs were produced in vitro for use in translation assays. […] In order to hydrolyze the remaining plasmid DNA, 1 μL of TURBO DNase was added to the reaction mixture and further incubated at 37° C. for 15 min. Purification of transcription reactions was done by using the MEGAclear™ kit (Life Technologies Corp) as per manufacturer's protocol. The in vitro transcription results in a mixture of 5′analog-capped and uncapped mRNAs.
To determine the translational efficiency, the luciferase mRNA poly(A) product generated from the transcription reaction using a standard cap and the luciferase mRNA poly(A) product generated as described above using the alkyne-derivatized cap 7 were transfected separately into HeLa cells.
The HeLa cells (60,000/well in 24 well-plates) were seeded at least 12 h before transfection in growth medium without antibiotics. Capped RNA was prepared by mixing 600 ng of RNA, 2.5 μL of TFX-20™ (Promega), and 300 μL of serum-free DMEM in polystyrene tubes and incubated for 15 min at room temperature. […] The plate was mixed carefully to disrupt the cells and 10 μL of cell lysates from each transfection reactions were mixed with 100 μL of luciferase substrate (Promega) and measured immediately on a POLARstar OPTIMA Luminometer (BMG Labtech) in 96-well plates. […]

Chain of T7 RNA polymerase (P00573 whole entry): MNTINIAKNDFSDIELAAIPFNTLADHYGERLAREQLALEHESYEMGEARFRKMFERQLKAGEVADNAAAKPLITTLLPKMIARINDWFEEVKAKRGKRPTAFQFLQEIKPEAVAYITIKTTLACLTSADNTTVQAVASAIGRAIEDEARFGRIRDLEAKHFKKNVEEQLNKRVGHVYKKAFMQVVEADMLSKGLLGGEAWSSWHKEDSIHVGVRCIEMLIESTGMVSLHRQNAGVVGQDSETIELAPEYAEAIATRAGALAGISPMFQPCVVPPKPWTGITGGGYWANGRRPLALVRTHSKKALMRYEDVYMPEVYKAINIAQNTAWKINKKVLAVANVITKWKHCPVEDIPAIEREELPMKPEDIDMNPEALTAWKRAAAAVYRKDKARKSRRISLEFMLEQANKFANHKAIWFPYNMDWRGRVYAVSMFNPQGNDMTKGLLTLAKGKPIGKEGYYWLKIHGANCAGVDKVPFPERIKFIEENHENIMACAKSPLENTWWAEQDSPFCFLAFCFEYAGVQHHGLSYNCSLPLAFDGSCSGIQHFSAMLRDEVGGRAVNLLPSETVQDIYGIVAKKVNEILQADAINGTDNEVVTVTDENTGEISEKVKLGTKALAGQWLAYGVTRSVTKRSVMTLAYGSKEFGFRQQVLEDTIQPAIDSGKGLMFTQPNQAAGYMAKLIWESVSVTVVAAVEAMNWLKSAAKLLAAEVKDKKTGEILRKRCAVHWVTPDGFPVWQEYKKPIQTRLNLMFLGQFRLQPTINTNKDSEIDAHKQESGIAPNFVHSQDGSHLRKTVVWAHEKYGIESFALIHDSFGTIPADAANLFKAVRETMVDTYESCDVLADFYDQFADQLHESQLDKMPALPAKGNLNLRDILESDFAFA

Compound | capping efficiency (T7 RNA polymerase) | translational efficiency (luciferase signal) relative to mRNA capped with the standard cap analog (HeLa cells) | translational efficiency (luciferase signal) relative to mRNA capped with the standard cap analog (HeLa cells; listed as 3′-O-propargyl substituted cap analog)
Cn1c[n+]([C@@H]2O[C@H](COP(=O)(O)OP(=O)(O)OP(=O)(O)OC[C@H]3O[C@@H](n4cnc5c(=O)[nH]c(N)nc54)[C@H](O)[C@@H]3O)[C@@H](O)[C@H]2O)c2nc(N)[nH]c(=O)c21 [standard cap, m^7G(5′)ppp(5′)G, reference compound] | 73% |  | 
C#CCO[C@H]1[C@@H](O)[C@H](n2c[n+](C)c3c(=O)[nH]c(N)nc32)O[C@@H]1COP(=O)(O)OP(=O)(O)OP(=O)(O)OC[C@H]1O[C@@H](n2cnc3c(=O)[nH]c(N)nc32)[C@H](O)[C@@H]1O [compound 7, m^7,3′-O-propargylG[5′]ppp[5′]G] | 60% | up to 3 fold | 3.1 fold
